This is an account of results in paper PMC9550195, “GSK3β-dependent lysosome biogenesis: An effective pathway to mitigate renal fibrosis with LM49” (Frontiers in Pharmacology, 2022).

The assay has as its target T1, GSK3β (Homo sapiens, UniProt P49841).
T1 construct: gene GSK3B
As to the kind of experiment: BLI with immobilised biotinylated recombinant GSK-3β; supported by mobility shift kinase assay (IC50 […]), Lineweaver-Burk, CETSA, DARTS. In kind it is binding.

T1 sequence (P49841 whole entry): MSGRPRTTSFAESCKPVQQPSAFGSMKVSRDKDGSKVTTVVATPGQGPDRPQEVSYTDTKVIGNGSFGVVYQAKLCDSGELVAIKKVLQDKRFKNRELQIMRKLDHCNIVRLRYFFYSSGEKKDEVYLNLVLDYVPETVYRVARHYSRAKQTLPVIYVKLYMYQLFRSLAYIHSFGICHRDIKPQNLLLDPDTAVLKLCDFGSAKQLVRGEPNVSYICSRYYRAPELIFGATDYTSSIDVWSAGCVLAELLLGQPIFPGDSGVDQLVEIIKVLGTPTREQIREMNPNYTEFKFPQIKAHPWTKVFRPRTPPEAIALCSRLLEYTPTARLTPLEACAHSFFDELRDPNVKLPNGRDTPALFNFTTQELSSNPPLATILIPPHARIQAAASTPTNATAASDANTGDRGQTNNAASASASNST

Broadly, the Kd is the equilibrium constant for the complex coming apart. With `O=C(c1cc(Br)ccc1O)c1cc(O)c(O)cc1Br` [LM49, 5,2′-dibromo-2,4′,5′-trihydroxydiphenylmethanone], the Kd was determined as 122 µM.
